Data set [1] deals with intra-abdominal adhesion formation. The experiment in a line: Intra-abdominal adhesion model (laparotomy, cecal abrasion, silicone patch), adhesion score. In kind it is in vivo, mice (C57BL/6). The following applies: for intra-abdominal adhesion score (total, 0-16): 10 days after surgery, oral treatment for 10 days from day of surgery, mean +/- SEM, control 13.6+/-0.49; for decrease of intra-abdominal adhesion formation: FIG. 2, versus control mice; for intra-abdominal adhesion score (total, 0-16), durability: treated for 10 days, observed an additional 25 days before sacrifice (day 35), control 13.4+/-1.0. The protocol:
Seven to eight week-old male C57BL/6 mice (Jackson Laboratories, Bar Harbor, Me.) were housed five animals to a cage in a barrier room. Mice were acclimated to their environment for at least 72 hours prior to the initiation of each experiment and allowed food and water ad libitum. Animal protocols complied with the NIH Animal Research Advisory Committee guidelines and were approved by the Children's Hospital Institutional Animal Care and Use Committee. A standard adhesion model was performed as previously described (Chiang 2000). Specifically, a 5.0 mm×5.0 mm square piece of sterile silicone (Dow Corning, Midland, Mich.) was secured intra-abdominally to the right abdominal wall, lateral to the epigastric vessels, with two 7-0 proline sutures under isoflurane anesthesia. The cecum then was gently rubbed with two cotton swabs to promote adhesion formation.
After recovering from anesthesia, groups of mice were treated with either oral methylcellulose alone (100 μl, control) or an experimental drug mixed in 100 μl methylcellulose beginning on the day of surgery for 10 days. […] Mice treated with COX-2 selective inhibitors received either celecoxib (68 mg/kg orally twice a day) or rofecoxib (40 mg/kg orally once a day) (Laudanno 2001).
Ten and 35 days after surgery, mice were euthanized and adhesion formation over the silicone patch was measured by two blinded individuals based on a previously described scoring system (Chiang S, et al. J Ped Surg. 2000, 35, 189-196). The tenacity, type, and extent of adhesions to the patch, as well as the extent of adhesions to the cecum were graded on a scale of 0 to 4. The total adhesion score was the sum of the four individual scores (see table 1, below). A minimum score was 0 and the maximum score was 16. Tenacity was rated as none (0), adhesions fell apart (1), lysed with traction (2), lysed with blunt dissection (3), lysed with sharp dissection (4). Type was scored as none (0), filmy (1), mildly dense (2), moderately dense (3), very dense (4). Extent was measured as the percent of the patch covered by adhesion: 0% (0), <25% (1), 25-50% (2), 50-75% (3), >75% (4). Cecal adhesions were graded as none (0), adhesions fell apart (1), lysed with traction (2), lysed with blunt dissection (3), lysed with sharp dissection (4).

The subject of data set [2] is endothelium (CD31/PECAM-1) of granulation tissue. The experiment in a line: Microvessel density of granulation tissue surrounding the silicone patch (CD31 immunostaining, image analysis). In kind it is in vivo, mice (C57BL/6). The following applies: day 10; CD31-stained area as proportion of total area; mean ± SEM; control 6.4±0.6. The protocol: Silicone patches and abdominal wall were fixed at 4 degrees Celsius in 10% formalin overnight and washed with phosphate buffered saline. The specimens were then embedded in paraffin and 5 micron sections were cut. Endothelial cells were identified by antibody staining against the endothelial cell surface antigen CD31 (PECAM-1) and a diaminobenzidine chromogen (BD Biosciences Pharmingen, San Diego, Calif.). After deparaffinization and rehydration, sections were incubated with proteinase K (Roche, Basel, Switzerland) for 30 min at 37° C. Non-specific binding sites were blocked for 30 min at room temperature with TNB blocking buffer (NEN Life Sciences, Boston, Mass.). Primary CD31 antiserum (Pharmingen) was added to the sections overnight at 4° C. Slides were washed twice with phosphate buffered saline and secondary goat anti-mouse IgG antibody (Vector Laboratories, Burlingame, Calif.) was then added for 30 min at room temperature. After again washing twice with PBS the slides were incubated with streptavidin alkaline phosphatase solution (1:100) (Perkin-Elmer Life Sciences, Boston, Mass.) for 30 min at room temperature followed by biotinyl tyramide amplification dilutent (1:50) (Perkin-Elmer Life Sciences) for 10 min. After repeat incubation with alkaline phosphatase solution (1:100), for 30 min at room temperature, the chromagen, Vector Novar substrate kit (Vector Laboratories) was added. Slides were lightly counterstained with hematoxylin for imaging.
Sections were taken from the abdominal wall, patch, and lesions at sacrifice on day 10. To quantitate vessel density, CD31 immunostained sections underwent digital image analysis using a Nikon Eclipse TE300 inverting photomicroscope with an attached Spot RT (Diagnostic Instruments Inc.) video camera linked to a personal computer. Images were imported directly to the image analysis program IP Lab (Scanalytics Inc., Fairfax, Va.). Sequential images were grabbed at 200× for the […] sections without overlapping. To calculate the volume fraction of stained regions, a color threshold was chosen for each image that distinguished between the stained areas and background. The proportion of the selected color was calculated as a percentage of total area and used as a measure of vessel density. Sections from 3 different mice for each of the study groups were examined and vascularization was scanned and quantified in 5 representative fields per section.

A further data set concerns adhesions. As to conditions: cited from earlier work.

Structures are written as SMILES.

As to `Cc1ccc(-c2cc(C(F)(F)F)nn2-c2ccc(S(N)(=O)=O)cc2)cc1` [celecoxib], in data set [1], the “intra-abdominal adhesion score (total, 0-16)” value is 1.36+/−0.5; the “decrease of intra-abdominal adhesion formation” value (“decrease” below) is on record as 74%; the “intra-abdominal adhesion score (total, 0-16), durability” value is 1.5+/−0.9. Also, the “microvessel density of granulation tissue surrounding the silicone patch” value (“microvessel density” below) in data set [2] came to 3.8±0.8.

In the case of `COc1ccc2cc([C@H](C)C(=O)O)ccc2c1` [naproxen], the “intra-abdominal adhesion score (total, 0-16)” value in data set [1] is 8.4+/−2.2.

Regarding `CS(=O)(=O)c1ccc(C2=C(c3ccccc3)C(=O)OC2)cc1` [rofecoxib], in data set [1], the “intra-abdominal adhesion score (total, 0-16)” value was 3.6+/−1.1 and the “decrease” value came out at 91%. Besides, the “microvessel density” value in data set [2] is on record as 7.9±0.6.

On to `CO[C@@H]1[C@H](OC(=O)NC(=O)CCl)CC[C@]2(CO2)[C@H]1[C@@]1(C)O[C@@H]1CC=C(C)C` [TNP-470], for which the side-effects result in the data set with adhesions (literature) is recorded as “absence of healing of abdominal wounds”. Further, the inhibition of adhesions entry with adhesions (murine model (Chiang 2001)) is recorded as “inhibit adhesions”.

On to `CC(C)Cc1ccc(C(C)C(=O)O)cc1` (stereo not shown) [ibuprophen], for which the “intra-abdominal adhesion score (total, 0-16)” value in data set [1] was 7.8+/−1.4. Moreover, the “microvessel density” value in data set [2] was 9.9±1.1.

Turning to `CC(=O)Oc1ccccc1C(=O)O` [aspirin], the “macroscopic adhesion formation over the silicone patch (photograph)” value in data set [1] (10 days after laparotomy, cecal abrasions and silicone patch placement, FIG. 1) is given as “dense adhesion formation over the silicone patch”. For the same compound, in data set [1], the “intra-abdominal adhesion score (total, 0-16)” value is listed as 13.8+/−0.4; the “decrease” value is “no effect”; the “intra-abdominal adhesion score (total, 0-16), durability” value is 12.2+/−1.2. Besides, the “microvessel density” value in data set [2] is reported as 13.3±1.0.

As to `COc1ccc2c(c1)c(CC(=O)O)c(C)n2C(=O)c1ccc(Cl)cc1` [indomethacin], the “intra-abdominal adhesion score (total, 0-16)” value in data set [1] was 7.3+/−1.7. In addition, the “microvessel density” value in data set [2] turned out to be 11.3±1.5.

These data come from US20040220249A1, “Prevention of surgical adhesions using selective COX-2 inhibitors” (Children's Medical Center Corporation, priority 2003, published 2004).
